In ChEMBL document CHEMBL1201862, “PubChem BioAssay data set” (2004):
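Following 48 hours of exposure in 96-well plates, responses at five concentrations were used to interpolate endpoints linearly. The concentration for 50% growth inhibition is given as GI50.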 Active and inactive are the calls of the source. Cut-off read from the data, not from the text of the source: active = GI50 up to about 1.1 µM and inactive = higher.

Key:
Test in all cases: NCI-60 cell line screen, 48 h
HCT-15 = system: HCT-15
PC-3 = system: PC-3
OVCAR-4 = system: OVCAR-4
RXF 393 = system: RXF 393
OVCAR-5 = system: OVCAR-5
NCI-H226 = system: NCI-H226
M14 = system: M14
HCT-116 = system: HCT-116
OVCAR-8 = system: OVCAR-8
UACC-257 = system: UACC-257
SK-MEL-5 = system: SK-MEL-5
DU-145 = system: DU-145
UO-31 = system: UO-31
SF-268 = system: SF-268
LOX IMVI = system: LOX IMVI
SN12C = system: SN12C
OVCAR-3 = system: OVCAR-3
MDA-N = system: MDA-N
A498 = system: A498
NCI-H23 = system: NCI-H23
A549 = system: A549
TK-10 = system: TK-10
NCI/ADR-RES = system: NCI/ADR-RES
T47D = system: T47D
HT-29 = system: HT-29
CAKI-1 = system: CAKI-1
SK-OV-3 = system: SK-OV-3
HCC 2998 = system: HCC 2998
HOP-92 = system: HOP-92
Malme-3M = system: Malme-3M
MCF7 = system: MCF7
SNB-75 = system: SNB-75
U-251 = system: U-251
SK-MEL-2 = system: SK-MEL-2
IGROV-1 = system: IGROV-1
CCRF-CEM = system: CCRF-CEM
BT-549 = system: BT-549
HOP-62 = system: HOP-62
ACHN = system: ACHN
RPMI-8226 = system: RPMI-8226
HL-60 = system: HL-60
KM12 = system: KM12
SNB-19 = system: SNB-19
SF-295 = system: SF-295
MDA-MB-435 = system: MDA-MB-435
UACC-62 = system: UACC-62
NCI-H522 = system: NCI-H522
K562 = system: K562
SW-620 = system: SW-620
Hs-578T = system: Hs-578T
MOLT-4 = system: MOLT-4
COLO 205 = system: COLO 205
NCI-H460 = system: NCI-H460
SK-MEL-28 = system: SK-MEL-28
EKVX = system: EKVX
786-0 = system: 786-0

Measured: GI50

COC(=O)[C@H](Cc1ccccc1)NC(=O)N1CCCN(C(=O)N[C@@H](Cc2ccccc2)C(=O)OC)CCCN(C(=O)N[C@@H](Cc2ccccc2)C(=O)OC)CCC1
inactive: PC-3 15.8 µM | OVCAR-4 20.7 µM | RXF 393 16.9 µM | OVCAR-5 15.7 µM | NCI-H226 16.5 µM | M14 18 µM | HCT-116 20.2 µM | OVCAR-8 20.7 µM | UACC-257 18.2 µM | SK-MEL-5 19.4 µM | DU-145 18.4 µM | UO-31 15.9 µM | SF-268 17.5 µM | LOX IMVI 15.3 µM | SN12C 19.6 µM | OVCAR-3 16.9 µM | MDA-N 26.1 µM | A498 19.9 µM | NCI-H23 27.2 µM | A549 27.9 µM | TK-10 22.3 µM | NCI/ADR-RES 30.8 µM | T47D 17.3 µM | HT-29 16.8 µM | CAKI-1 25.5 µM | SK-OV-3 22.8 µM | HCC 2998 18.1 µM | HOP-92 16 µM | Malme-3M 17.2 µM | MCF7 18.2 µM | SNB-75 16.1 µM | U-251 16.7 µM | SK-MEL-2 15 µM | IGROV-1 16.4 µM | CCRF-CEM 32.5 µM | BT-549 31.1 µM | HOP-62 16.6 µM | ACHN 17.1 µM | RPMI-8226 32.1 µM | HL-60 32.8 µM | KM12 28.9 µM | SNB-19 27.7 µM | SF-295 17.8 µM | MDA-MB-435 20.6 µM | UACC-62 16.2 µM | NCI-H522 18.9 µM | K562 61.1 µM | SW-620 19.5 µM | Hs-578T 20.7 µM | MOLT-4 17.7 µM | COLO 205 18 µM | NCI-H460 27.7 µM | SK-MEL-28 19.4 µM | EKVX 21.8 µM | 786-0 17.5 µM
27.8 µM: HCT-15
